Measurements: patent US5602101A, “Antithrombotic agents” (priority 1994, dated 1997)

What was measured:
Type in all cases: biochemical
human thrombin = molecular target: T1, human thrombin (Homo sapiens, UniProt P00734); assay: Inhibition of amidase activity of thrombin (chromogenic substrate), Kass; details: substrate N-benzoyl-Phe-Val-Arg-p-nitroanilide, pH 7.4
T1 construct: purified human thrombin Enzyme Research Laboratories, South Bend, Ind; purchased Enzyme Research Laboratories, South Bend, Ind
Protocol: (§1) The assay is carried out by mixing 50 μl buffer (0.03M Tris, 0.15M NaCl, pH 7.4), 25 μl of human thrombin solution (purified human thrombin Enzyme Research Laboratories, South Bend, Ind.) at 8 NIH units/ml and 25 μl of test compound in a solvent (50% aqueous methanol (v:v)). Then 150 μl of an aqueous solution of the chromogenic substrate (at 0.25 mg/ml) are added and the rates of hydrolysis of the substrate are measured by monitoring the reactions at 405 nm for the release of p-nitroaniline. Standard curves are constructed by plotting free thrombin concentration against hydrolysis rate. The hydrolysis rates observed with test compounds are then converted to "free thrombin" values in the respective assays by use of the standard curves. The bound thrombin (bound to test compound) is calculated by subtracting the amount of free thrombin observed in each assay from the known initial amount of thrombin used in the assay. The amount of free inhibitor in each assay is calculated by subtracting the number of moles of bound thrombin from the number of moles of added inhibitor (test compound).
The Kass value is the hypothetical equilibrium constant for the reaction between thrombin and the test compound (I). [drawing 53]
(§2) Kass is calculated for a range of concentrations of test compounds and the mean value is reported in units of liter per mole.

[1] = molecular target: T2, tissue plasminogen activator (t-PA) (Homo sapiens, UniProt P00750); assay: Serine protease inhibition, t-PA (chromogenic substrate), Kass; details: substrate H-D-Ile-Pro-Arg-p-nitroanilide
T2 construct: purchased American Diagnostics, Greenwich, Conn
Protocol: as §1, §2
(§3) By substantially following the procedures described above for human thrombin, and using other human blood coagulation system serine proteases, and using fibrinolytic system serine proteases, with the appropriate chromogenic substrate, identified below, selectivity of the compounds of the present invention with respect to the coagulation factor serine proteases and to the fibrinolytic serine proteases are evaluated as well as their substantial lack of interference with human plasma clot fibrinolysis.
(§4) Human factors X, Xa, IXa, XIa, and xIIa are purchased from Enzyme Research Laboratories, South Bend, Ind.; human urokinase from Leo Pharmaceuticals, Denmark; and recombinant activated Protein C (aPC) is prepared at Eli Lilly and Co. substantially according to U.S. Pat. No. 4,981,952 incorporated by reference herein in its entirety. Chromogenic substrates: N-Benzoyl-Ile-Glu-Gly-Arg-p-nitroanilide (for factor Xa); N-Cbz-D-Arg-Gly-Arg-p-nitroanilide (for factor IXa assay as the factor Xa substrate) pyroglutamyl-Pro-Arg-p-nitroanilide (for factor XIa and for aPC); H-D-Pro-Phe-Arg-p-nitroanilide (for factor XIIa); and pyroglutamyl-Gly-Arg-p-nitroanilide (for urokinase); are purchased from KabiVitrum, Stockholm, Sweden, or from Midwest Biotech, Fishers, Indiana. Bovine trypsin is purchased from Worthington Biochemicals, Freehold, N.J., and human plasma kallikrein from Kabi Vitrum, Stockholm, Sweden. N-Benzoyl-Phe-Val-Arg-p-nitroanilide, the substrate for human thrombin and for trypsin, is synthesized according to procedures described above for the compounds of the present invention, known methods of peptide coupling from commercially available reactants, or was purchased from Midwest Biotech, Fishers, Ind. Human plasmin is purchased from Boehringer Mannheim, Indianapolis, Ind.; nt-PA is purchased as single chain activity reference from American Diagnostics, Greenwich, Conn.; modified-t-PA6 (mt-PA6) is prepared at Eli Lilly and Company by procedure known in the art (See, Burck, et al., J. Biol. Chem., 265, […] (1990). Plasmin chromogenic substrate H-D-Val-Leu-Lys-p-nitroanilide and tissue plasminegen activator (t-PA) substrate H-D-Ile-Pro-Arg-p-nitroanilide are purchased from Kabi Vitrum, Stockholm, Sweden.

Bovine trypsin = molecular target: T3, Bovine trypsin (Bos taurus, UniProt P00760); assay: Serine protease inhibition, trypsin (chromogenic substrate), Kass; details: substrate N-Benzoyl-Phe-Val-Arg-p-nitroanilide
T3 construct: Bovine trypsin is purchased from Worthington Biochemicals, Freehold, N.J; purchased Worthington Biochemicals, Freehold, N.J
T3 sequence (P00760 24-246): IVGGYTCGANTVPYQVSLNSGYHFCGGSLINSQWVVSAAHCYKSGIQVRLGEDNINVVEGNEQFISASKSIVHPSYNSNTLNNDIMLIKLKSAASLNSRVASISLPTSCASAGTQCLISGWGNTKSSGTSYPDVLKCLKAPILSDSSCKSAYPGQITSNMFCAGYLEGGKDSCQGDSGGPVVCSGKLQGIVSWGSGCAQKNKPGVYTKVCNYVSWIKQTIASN
Protocol: as §1, §2, §3, §4

factor Xa = molecular target: T4, factor Xa (Homo sapiens, UniProt P00742); assay: Serine protease inhibition, factor Xa (chromogenic substrate), Kass; details: substrate N-Benzoyl-Ile-Glu-Gly-Arg-p-nitroanilide
T4 construct: Human factors X, Xa, IXa, XIa, and xIIa are purchased from Enzyme Research Laboratories; purchased Enzyme Research Laboratories, South Bend, Ind
Protocol: as §1, §2, §3, §4

Human plasmin = molecular target: T5, Human plasmin (Homo sapiens, UniProt P00747); assay: Serine protease inhibition, plasmin (chromogenic substrate), Kass; details: substrate H-D-Val-Leu-Lys-p-nitroanilide
T5 construct: Human plasmin is purchased from Boehringer Mannheim, Indianapolis, Ind; purchased Boehringer Mannheim, Indianapolis, Ind
Protocol: as §1, §2, §3, §4

Human Plasma [2] = assay: Anticoagulation in human plasma, thrombin time (TT); details: concentration required to double the thrombin time
Protocol: (§5) Dog plasma and rat plasma are obtained from conscious mixed-breed hounds (either sex, Hazelton-LRE, Kalamazoo, Mich., U.S.A.) or from anesthetized male Sprague-Dawley rats (Harlan Sprague-Dawley, Inc., Indianapolis, Ind., U.S.A.) by venipuncture into 3.8 percent citrate. Fibrinogen is prepared from in-date ACD human blood as the fraction I-2 according to previous procedures and specifications. Smith, Biochem. Chem. […] Human fibrinogen is also purchased as 98 percent pure/plasmin free from American Diagnostics, Greenwich, Conn. Coagulation reagents ACTIN, Thromboplastin, and Human plasma are from Baxter Healthcare Corp., Dade Division, Miami, Fla. Bovine thrombin from Parke-Davis (Ann Arbor, Mich.) is used for coagulation assays in plasma. Coagulation assay procedures are as previously described. Smith, et al., Thrombosis Research, 5, 163-174 (1988). A CoAScreener coagulation instrument (American LABor, Inc.) is used for all coagulation assay measurements. The prothrombin time (PT) is measured by adding 0.05 ml saline and 0.05 ml Thromboplastin-C reagent to 0.05 ml test plasma. The activated partial thromboplastin time (APTT) is measured by incubation of 0.05 ml test plasma with 0.05 ml Actin reagent for 120 seconds followed by 0.05 ml CaCl2 (0.02M). […] The compounds of formula I are added to human or animal plasma over a wide range of concentrations to determine prolongation effects on the APTT, PT, and TT assays. Linear extrapolations are performed to estimate the concentrations required to double the clotting time for each assay.

Human Plasma [3] = assay: Anticoagulation in human plasma, activated partial thromboplastin time (APTT); details: concentration required to double the APTT
Protocol: as §5

Human Plasma [4] = assay: Anticoagulation in human plasma, prothrombin time (PT); details: concentration required to double the PT
Protocol: as §5

T5 sequence (P00747 581-810 limits assumed): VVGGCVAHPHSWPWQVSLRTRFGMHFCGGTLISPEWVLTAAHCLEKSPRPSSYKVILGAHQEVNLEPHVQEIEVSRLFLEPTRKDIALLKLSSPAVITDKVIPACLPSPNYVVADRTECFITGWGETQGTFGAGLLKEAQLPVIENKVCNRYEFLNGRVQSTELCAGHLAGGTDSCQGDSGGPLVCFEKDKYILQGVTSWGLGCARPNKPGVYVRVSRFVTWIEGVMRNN
T5 sequence (P00747 97-580 partner limits assumed): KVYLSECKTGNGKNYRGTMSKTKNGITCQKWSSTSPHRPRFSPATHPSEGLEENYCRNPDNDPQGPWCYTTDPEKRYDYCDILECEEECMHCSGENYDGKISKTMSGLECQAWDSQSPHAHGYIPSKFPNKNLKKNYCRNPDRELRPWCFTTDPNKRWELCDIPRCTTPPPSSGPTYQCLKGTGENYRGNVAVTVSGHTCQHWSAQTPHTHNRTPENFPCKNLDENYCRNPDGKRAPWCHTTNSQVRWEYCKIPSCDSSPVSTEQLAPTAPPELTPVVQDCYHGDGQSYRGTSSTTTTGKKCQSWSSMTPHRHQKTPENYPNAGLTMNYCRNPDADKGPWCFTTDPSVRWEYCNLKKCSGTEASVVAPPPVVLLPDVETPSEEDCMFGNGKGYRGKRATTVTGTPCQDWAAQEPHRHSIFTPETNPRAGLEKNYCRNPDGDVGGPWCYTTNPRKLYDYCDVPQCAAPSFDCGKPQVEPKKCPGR
T2 sequence (P00750 36-562): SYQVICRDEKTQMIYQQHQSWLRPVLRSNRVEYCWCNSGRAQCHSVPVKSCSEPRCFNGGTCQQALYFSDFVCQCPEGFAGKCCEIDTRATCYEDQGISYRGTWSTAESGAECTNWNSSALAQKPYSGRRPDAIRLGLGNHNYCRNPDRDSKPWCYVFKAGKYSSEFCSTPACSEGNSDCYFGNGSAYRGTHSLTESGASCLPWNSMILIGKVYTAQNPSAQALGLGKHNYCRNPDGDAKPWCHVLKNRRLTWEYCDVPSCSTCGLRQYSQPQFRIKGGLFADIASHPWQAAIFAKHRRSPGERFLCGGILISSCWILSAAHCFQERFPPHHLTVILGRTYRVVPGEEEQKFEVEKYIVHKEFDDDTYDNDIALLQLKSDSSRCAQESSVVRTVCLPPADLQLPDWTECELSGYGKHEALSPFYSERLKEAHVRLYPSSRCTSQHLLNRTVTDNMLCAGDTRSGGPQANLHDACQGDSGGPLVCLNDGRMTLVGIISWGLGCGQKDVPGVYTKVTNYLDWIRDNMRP
T4 sequence (P00742 235-488 limits assumed): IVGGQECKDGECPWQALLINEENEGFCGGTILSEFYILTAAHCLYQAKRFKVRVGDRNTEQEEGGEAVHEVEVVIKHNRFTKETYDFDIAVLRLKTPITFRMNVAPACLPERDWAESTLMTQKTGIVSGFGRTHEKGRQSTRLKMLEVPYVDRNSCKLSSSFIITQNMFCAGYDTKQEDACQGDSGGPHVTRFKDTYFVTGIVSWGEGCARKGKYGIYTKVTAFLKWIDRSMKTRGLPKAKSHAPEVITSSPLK
T4 sequence (P00742 41-179 partner limits assumed): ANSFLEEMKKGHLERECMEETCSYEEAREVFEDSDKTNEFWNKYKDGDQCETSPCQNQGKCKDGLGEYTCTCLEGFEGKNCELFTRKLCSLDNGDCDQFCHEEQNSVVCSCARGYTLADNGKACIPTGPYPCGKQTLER

| Enzyme Kass, Human Thrombin (human thrombin) [L/mol × 10^6] | Enzyme Kass, t-Pa [1] [L/mol × 10^6] | Enzyme Kass, Trypsin (Bovine trypsin) [L/mol × 10^6] | Enzyme Kass, Xa (factor Xa) [L/mol × 10^6] | Enzyme Kass, Plasmin (Human plasmin) [L/mol × 10^6] | Compound | 2 × Clotting time, TT (Human Plasma [2]) [ng/mL] | 2 × Clotting time, APTT (Human Plasma [3]) | 2 × Clotting time, PT (Human Plasma [4]) |
| --- | --- | --- | --- | --- | --- | --- | --- | --- |
| 13 | 0.22 | 5.2 | 0.067 | 0.27 | Cl.NC(N)=NCCCC(C=O)NC(=O)C1CCCN1C(=O)C(Cc1ccccc1)NC(=O)Cc1cccnc1 [Example 4, N-(α-(3-pyridyl)-acetyl)-D-Phe-Pro-Arg-H-HCl] | 150 | 2,300 ng/ML | 3,400 ng/ML |
| 320 | 1.1 | 7.9 | 4.6 | 25 | Cl.Cn1c(C(=O)NC(CC2CCCCC2)C(=O)N2CCCC2C(=O)NC(C=O)CCCN=C(N)N)cc2ccccc21 [Example 5, NMI-D-Cha-Pro-Arg-H.HCl] | 110 | 1,000 ng/ML | 2,500 ng/ML |
| 200 | 0.088 | 2.5 | 0.83 | 2.5 | Cl.NC(N)=NCCCC(C=O)NC(=O)C1CCCN1C(=O)C(CC1CCCCC1)NC(=O)c1ccc2ccccc2n1 [Example 6, N-(quinolinyl-2-carbonyl)-D-Cha-Pro-Arg-H-HCl] | 97 | 1,400 ng/ML | 2,700 ng/ML |
| 200 | 1.5 | 150 | 8.8 | 9.5 | COc1ccc(OC)c(S(=O)(=O)N[C@H](Cc2ccccc2)C(=O)N2CCC[C@H]2C(=O)N[C@H](C=O)CCCNC(=N)N)c1.Cl [Example 15, 2,5-(MeO)2 -PhSO2 -D-Phe-Pro-Arg-H-HCl] | 92 | 550 ng/mL | 2,000 ng/ML |
| 260 | 2.7 | 200 | 11 | 18 | Cc1noc(C)c1S(=O)(=O)N[C@H](Cc1ccccc1)C(=O)N1CCC[C@H]1C(=O)N[C@H](C=O)CCCNC(=N)N.Cl [Example 16, 3,5-Me-4-isoxazolyl-SO2 -D-Phe-Pro-Arg-H.HCl] | 33 | 430 ng/mL | 1,300 ng/ML |
| 68 | 0.31 | 52 | 2.8 | 3.4 | Cl.N=C(N)NCCC[C@@H](C=O)NC(=O)[C@@H]1CCCN1C(=O)[C@@H](Cc1ccccc1)NS(=O)(=O)c1nccs1 [Example 19, 2-Thiazolyl-SO2 -D-Phe-Pro-Arg-H-HCl] | 66 | 810 ng/mL | 2,900 ng/ML |
| 510 | 0.34 | 160 | 45 | 14 | CCS(=O)(=O)N[C@@H](C(=O)N1CCC[C@H]1C(=O)N[C@H](C=O)CCCNC(=N)N)c1ccccc1.Cl [Example 20, EtSO2 -D-Phg-Pro-Arg-H.HCl] | 34 | 250 ng/mL | 880 ng/mL |
| 260 | 0.11 | 260 | 24 | 13 | CCS(=O)(=O)N[C@@H](C(=O)N1CCC[C@H]1C(=O)N[C@H](C=O)CCCNC(=N)N)C1CCCCC1.Cl [Example 22, EtSO2 -D-Chg-Pro-Arg-H.HCl] | 46 | 330 ng/mL | 1,100 ng/ML |
| 3.4 | 0.11 | 14 | 0.066 | 0.28 | CC(=O)N[C@H](Cc1ccccc1)C(=O)N1CCC[C@H]1C(=O)N[C@H](C=O)CCCN=C(N)N.Cl [Example 23, Ac-D-Phe-Pro-Arg-H.HCl] | 140 | 2,700 ng/ML | 4,100 ng/ML |
| 695 | – | – | 3.3 | – | Cl.N=C(N)NCCC[C@@H](C=O)NC(=O)[C@@H]1CCCN1C(=O)[C@@H](Cc1ccccc1)NCC(=O)O [Example 35, HOOCCH2 -D-Phe-Pro-ArgH.HCl] | 14 | 723 ng/mL | 1129 ng/mL |
| 556 | – | – | 40.5 | – | Cl.N=C(N)NCCC[C@@H](C=O)NC(=O)[C@@H]1CCCN1C(=O)[C@@H](CC1CCCCC1)NCC(=O)O [Example 36, HOCCH2 -D-Cha-Pro-ArgH.HCl] | 9 | 284 ng/mL | 695 ng/mL |
